Paper PMC10714399, “Open Source Antibiotics: Simple Diarylimidazoles Are Potent against Methicillin-Resistant Staphylococcus aureus” (ACS Infectious Diseases, 2023)
Converted amounts (≈) assume the structure as drawn. “And” between values parts separate entries of the source, which are not always exact repeats. Equal entries are not always repeated. Structures can show the parent of a compound that is named as a salt. Where two headings read alike, the source gives them in different places.

Tests used:
[1] = test system: Staphylococcus aureus ATCC 43300 MRSA; assay: CO-ADD antibacterial assay (growth inhibition, MIC), MRSA; format: cell-based
Protocol: Hit Confirmation of active compounds by whole cell growth inhibition assays was conducted as an 8-point dose response to determine the Minimum Inhibitory Concentration (MIC), in duplicate (n=2). The inhibition of growth is measured against those microorganisms that […]
Included in the Hit Confirmation were 5 bacteria: Escherichia coli, Klebsiella pneumoniae, Acinetobacter baumannii, Pseudomonas aeruginosa and Staphylococcus aureus, and 2 fungi Candida albicans and Cryptococcus neoformans. […]
Assay Parameters Bacteria Fungi HEK293 Haemolysis […]
Duplicate (n=2) Duplicate (n=2) Duplicate (n=2) Duplicate (n=2)
QC Control MIC: Control MIC: Control CC50: Control HC10:
Non-Binding Non-Binding TC, 384-well Polypropylene
Plates Surface (NBS), Surface (NBS), black wall/clear 384-well and 384-well plate 384-well plate bottom polystyrene 384-
Cation-adjusted Yeast Nitrogen DMEM
Media Mueller Hinton Base supplemented 0.9% NaCl
Hit Confirmation outcomes are detailed in individual Project reports, personalised for each Project Submission for each CO-ADD user.
Please see your data sheet with file extension P0XXX_HC_data.xlsx, for example CO-ADD Project P0100, P0100_HC_data.xlsx
Study: HC_data ID: HC-Procedures & Materials
Date: Last updated June 2018 Confidential Page 3 of 11
(1 picture or pasted object on this page, not shown here)
Samples were provided by the collaborator and stored frozen at -20 °C. Samples were prepared in DMSO and water to a final testing concentration of 32 µg/mL or 20 µM (unless otherwise indicated in the data sheet) and serially diluted 1:2 fold for 8 times. Each sample concentration was prepared in 384-well plates, non-binding surface plate (NBS; Corning 3640) for each bacterial/fungal strain, tissue-culture treated (TC-treated; Corning 3712/3764) black for mammalian cell types and polypropylene 384-well (PP; Corning 3657) for haemolysis assays, all in duplicate (n=2), and keeping the final DMSO concentration to a maximum of 0.5%. All the sample preparation was done using liquid handling robots. […]
detailed in the Data sheet for the individual Project.
All bacteria were cultured in Cation-adjusted Mueller Hinton broth (CAMHB) at 37 °C overnight. A sample of each culture was then diluted 40-fold in fresh broth and incubated at 37 °C for 1.5-3 h. The resultant mid-log phase cultures were diluted (CFU/mL measured by OD600), then added to each well of the compound containing plates, giving a cell density of 5×10^5 CFU/mL and a total volume of 50 µL. All the plates were covered and incubated at 37 °C for 18 h without shaking.
Inhibition of bacterial growth was determined measuring absorbance at 600 nm (OD600), using a Tecan M1000 Pro monochromator plate reader. The percentage of growth inhibition was calculated for each well, using the negative control (media only) and positive control (bacteria without inhibitors) on the same plate as references.
The percentage of growth inhibition was calculated for each well, using the negative control (media only) and positive control (bacteria without inhibitors) on the same plate. The MIC […]
by an inhibition ≥ 80%. In addition, the maximal percentage of growth inhibition is reported as DMax, indicating any compounds with partial activity.
Date: Last updated June 2018 Confidential Page 5 of 11
Material Code Brand/Supplier Cat No.
Compound preparation plate, Polypropylene PP Corning 3364
Assay Plates – Antimicrobial
Non-binding surface NBS 384w Corning 3640
Assay Plates – Cytotoxicity
Tissue culture treated Black/Clear bottom 384w Corning 3712
Assay Plates - Haemolysis PP-Haem Corning 3657 […]
Growth media - bacteria CAMHB Bacto Laboratories 212322
Culture agar - fungi YPD Becton Dickinson 242720
Growth media - fungi YNB Becton Dickinson 233520
Resazurin Sigma-Aldrich R7017
Dulbecco's Modified Eagle Medium DMEM Life Technologies 11995-073
Foetal Bovine Serum FBS Bovogen FFBS-500
0.9% NaCl Saline Baxter AHF7124
Sample Name Sample ID MW Conc. Solvent Source […]

[2] = test system: S. aureus ATCC 25923 (methicillin-susceptible); assay: In vitro antibacterial activity, MIC (UCL), MSSA; format: cell-based, Staphylococcus aureus; details: Staphylococcus aureus; read-out: MSSA MIC (UCL)
Procedure, shortened: (§1)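 Strains: MRSA NCTC 13373, MSSA ATCC 25923, vanA E. faecalis ATCC 51299. Overnight agar growth suspended in PBS, A600 0.1, diluted 1:100 into isosensitest broth; 2-fold compound dilutions 32–0.03 μg/mL, ≤2% DMSO. Vancomycin QC.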

[3] = test system: Staphylococcus aureus NCTC 13373 (mecA-positive; methicillin-resistant); assay: In vitro antibacterial activity, MIC (UCL School of Pharmacy assay), MRSA; format: cell-based; details: Staphylococcus aureus, UCL; read-out: MRSA MIC (UCL)
Procedure, shortened: as §1

[4] = test system: Enterococcus faecalis ATCC 51299 (vanA-positive; vancomycin-resistant); assay: In vitro antibacterial activity, MIC (UCL), VRE; format: cell-based; details: read-out: VRE MIC (UCL)
Procedure, shortened: as §1

[5] = Aqueous solubility; format: physicochemical; details: thermodynamic from solid; NEU; read-out: Aqueous Solubility (NEU)
[6] = Human liver microsome intrinsic clearance; format: in vitro ADME; details: human liver microsomes, NEU; read-out: HLM CLint (NEU)
[7] = Human plasma protein binding (PPB); format: in vitro ADME; details: human, plasma, human plasma, NEU; read-out: Human PPB (NEU) (converted)
[8] = LogD7.4 (Chrom Log D); format: physicochemical; details: chromatographic system (Chrom Log D); pH 7.4, NEU; read-out: LogD 7.4 (NEU)
From the text: To guide our initial SAR exploration work, we obtained liver microsomal intrinsic clearance data for 5 of the 18 compounds assayed by CO-ADD (Supporting Information - CDCO Report and Supporting Information - Biology). We then acquired intrinsic clearance (CLint), plasma protein binding (PPB), and solubility data on further compounds throughout the SAR campaign (Supporting Information - Biology, Tables S3 and S4). […] The more polar compounds (lower LogD) had reduced PPB and were more metabolically stable.
Table S4. ADME and Pharmacokinetics: compounds only appearing in the Supplementary […]
MRSA Aqueous HLM CLint Rat Hep CLint
Cmpd MIC Solubility Human PPB (%) (µL/min/mg (µL/min/10x6 LogD7.4
(µg/mL) (µM) protein) cells)
(§2) ADME and toxicity for compounds were measured according to procedures outlined in the manuscript submitted in parallel to this one;2 other procedures were used for those compounds analysed by Monash University (in vitro ADME) or UCL (toxicity), both described in the main

[9] = test system: MRC-5SV2 (human lung fibroblast cell line); assay: Toxicity against MRC-5SV2; format: cell-based; details: MRC5 cells
Protocol: as §2

[10] = Rat hepatocyte intrinsic clearance; format: in vitro ADME; details: rat hepatocytes, NEU; read-out: Rat Hep CLint (NEU)
[11] = test system: PMM (primary mouse macrophages); assay: Toxicity against PMM; format: cell-based; details: PMM
Protocol: as §2

[12] = test system: VSE; assay: In vitro antibacterial activity, MIC, VSE; format: cell-based; details: read-out: VSE MIC (UCL)

SMILES: c1ccc(-c2nc3ncccn3c2-c2ccc3c(c2)OCO3)nc1 [OSA_000815]
- MIC ([1]; read-out: MRSA MIC (CO-ADD)): > 32 µg/mL

SMILES: c1cncc(-c2nc3n(c2-c2ccc4c(c2)OCO4)CCC3)c1 [OSA_000816]
- MIC ([1]; read-out: MRSA MIC (CO-ADD)): > 32 µg/mL

SMILES: c1cc(-c2nc3n(c2-c2ccc4c(c2)OCO4)CCC3)ccn1 [OSA_000817]
- MIC ([1]; read-out: MRSA MIC (CO-ADD)): > 32 µg/mL

SMILES: c1ccc(-c2nc3n(c2-c2ccc4c(c2)OCO4)CCCC3)nc1 [OSA_000818]
- MIC ([1]; read-out: MRSA MIC (CO-ADD)): 16 µg/mL (≈ 50.1 µM)

SMILES: c1ccc(-c2nc3n(c2-c2ccc4c(c2)OCCO4)CCC3)nc1 [OSA_000819]
- MIC ([1]; read-out: MRSA MIC (CO-ADD)): 16 µg/mL (≈ 50.1 µM)

SMILES: COc1ccc(-c2c(-c3ccccn3)nc3n2CCC3)cc1OC [OSA_000820]
- MIC [2]: > 32 µg/mL
- MIC ([1]; read-out: MRSA MIC (CO-ADD)): 32 µg/mL (≈ 99.6 µM)
- MIC [3]: > 32 µg/mL

SMILES: COc1ccc(-c2c(-c3ccccn3)nc3n2CCC3)cc1 [OSA_000823]
- MIC ([1]; read-out: MRSA MIC (CO-ADD)): 16 µg/mL (≈ 54.9 µM)

SMILES: CSc1ccc(-c2c(-c3ccccn3)nc3n2CCC3)cc1 [OSA_000824]
- MIC ([1]; read-out: MRSA MIC (CO-ADD)): 4 µg/mL (≈ 13 µM)

SMILES: COc1cccc(-c2c(-c3ccccn3)nc3n2CCC3)c1 [OSA_000825]
- MIC ([1]; read-out: MRSA MIC (CO-ADD)): 16 µg/mL (≈ 54.9 µM)

SMILES: CSc1cccc(-c2c(-c3ccccn3)nc3n2CCC3)c1 [OSA_000826]
- MIC ([1]; read-out: MRSA MIC (CO-ADD)): 4 µg/mL (≈ 13 µM)

SMILES: c1ccc(-c2nc3n(c2-c2ccc4c(c2)CCO4)CCC3)nc1 [OSA_000827]
- MIC ([1]; read-out: MRSA MIC (CO-ADD)): 32 µg/mL (≈ 105 µM)

SMILES: c1ccc(-c2nc3n(c2-c2ccc4c(c2)OCC4)CCC3)nc1 [OSA_000828]
- MIC ([1]; read-out: MRSA MIC (CO-ADD)): 32 µg/mL (≈ 105 µM)

SMILES: c1ccc(-c2nc3n(c2-c2ccc4ccoc4c2)CCC3)nc1 [OSA_000829]
- MIC ([1]; read-out: MRSA MIC (CO-ADD)): 4 µg/mL (≈ 13.3 µM)

SMILES: c1ccc(-c2nc3n(c2-c2ccc4ccsc4c2)CCC3)nc1 [OSA_000830]
- MIC ([1]; read-out: MRSA MIC (CO-ADD)): 4 µg/mL (≈ 12.6 µM)

SMILES: COc1ccn2c(-c3cccc(Cl)n3)c(-c3ccccn3)nc2c1 [OSA_000857]
- MIC [4]: > 32 µg/mL
- solubility [5]: 37 µM (≈ 12.5 µg/mL)
- microsomal CLint [6]: 124 µL/min/mg
- fraction unbound [7]: 0.035
- MIC [3]: > 32 µg/mL
- chromatographic logD [8]: 2.5
- MRC5 TC50 [9]: 24.2 µM
- hepatocyte CLint [10]: 12.9 µL/min/1e6 cells
- PMM TC50 [11]: 64 µM

SMILES: Fc1ccc(Nc2c(-c3ccccn3)nc3ccccn23)cc1 [OSA_000987]
- MIC [12]: 32 µg/mL (≈ 105 µM)
- MIC [4]: 32 µg/mL (≈ 105 µM)
- solubility [5]: 0.5 µM (≈ 0.152 µg/mL)
- microsomal CLint [6]: 148 µL/min/mg
- fraction unbound [7]: 0.017
- MIC [2]: 16 µg/mL (≈ 52.6 µM)
- MIC [3]: 8 µg/mL (≈ 26.3 µM)
- chromatographic logD [8]: 3.3
- MRC5 TC50 [9]: 7.65 µM and 6.04 µM
- hepatocyte CLint [10]: 151 µL/min/1e6 cells

SMILES: COc1ccc2nc(-c3ccccn3)c(N(C)c3cc(F)cc(F)c3)n2c1 [OSA_000998]
- MIC [12]: 16 µg/mL (≈ 43.7 µM)
- MIC [4]: 32 µg/mL (≈ 87.3 µM)
- solubility [5]: 8 µM (≈ 2.93 µg/mL)
- microsomal CLint [6]: 100 µL/min/mg
- fraction unbound [7]: 0.0085
- MIC [2]: 8 µg/mL (≈ 21.8 µM)
- MIC [3]: 8 µg/mL (≈ 21.8 µM)
- chromatographic logD [8]: 4
- hepatocyte CLint [10]: > 300 µL/min/1e6 cells

SMILES: COc1ccnc(-c2nc3cc(OC)ccn3c2N(C)c2ccc(F)cc2)c1 [OSA_001000]
- MIC [12]: 8 µg/mL (≈ 21.1 µM)
- MIC [4]: 8 µg/mL (≈ 21.1 µM)
- solubility [5]: 12 µM (≈ 4.54 µg/mL)
- microsomal CLint [6]: 51.2 µL/min/mg
- fraction unbound [7]: < 0.033
- MIC [2]: 8 µg/mL (≈ 21.1 µM)
- MIC [3]: 2 µg/mL (≈ 5.29 µM)
- chromatographic logD [8]: 3.1
- hepatocyte CLint [10]: > 300 µL/min/1e6 cells

SMILES: CN[C@H](CC(C)C)C(=O)N[C@H]1C(=O)N[C@@H](CC(N)=O)C(=O)N[C@H]2C(=O)N[C@H]3C(=O)N[C@H](C(=O)N[C@H](C(=O)O)c4cc(O)cc(O)c4-c4cc3ccc4O)[C@H](O)c3ccc(c(Cl)c3)Oc3cc2cc(c3O[C@@H]2O[C@H](CO)[C@@H](O)[C@H](O)[C@H]2O[C@H]2C[C@](C)(N)[C@H](O)[C@H](C)O2)Oc2ccc(cc2Cl)[C@H]1O [Vancomycin - HCl, Vancomycin - HCL, reference compound]
- MIC ([1]; read-out: MIC MRSA (CO-ADD)): 1 µg/mL
